Data: patent publication US20230390222A1, “Amyloid-Binding Peptoids with Broad-Spectrum Antiviral, Antibacterial, and Antifungal Activity” (The Board of Trustees of the Leland Stanford Junior …, priority 2021, published 2023)
“Also recorded” adds a separate entry of the source.

How the values were obtained:
[1] = ThT fibril formation assay comparing kinetics of Aβ40 wild-type and Aβ40-E22Δ (Osaka) mutant; conditions: standard ThT fibril formation conditions, peptide alone
Method: FIG. 5 depicts a ThT fibril formation assay comparing fibril formation kinetics of Aβ40 wild-type and the Aβ40-E22Δ (Osaka) FAD mutant.
FIG. 5 illustrates exemplary data of preliminary experiments in which Aβ40-E22Δ was synthesized and subjected to standard conditions utilized in ThT fibril formation assays. FIG. 5 illustrates that the deletion of the E22 residue leads to a pronounced acceleration of fibril formation, which dropped from 196±7 min with Aβ40-WT to 38±1 min with Aβ40-E22Δ. The Aβ40-E22Δ mutant is much more amyloidogenic than Aβ40-WT, which may complicate efforts to block its amyloidogenicity.

[2] = test system: HSV-1; assay: Antiviral activity (inactivation) against HSV-1; type: cell-based, Herpes Simplex Virus-1
[3] = test system: C. albicans; assay: Activity against C. albicans; type: cell-based
[4] = test system: P. gingivalis; assay: Antimicrobial activity against P. gingivalis; type: cell-based, Porphyromonas gingivalis
[5] = test system: P. aeruginosa; assay: Activity against P. aeruginosa; type: cell-based
[6] = target: T1, Aβ40 (Homo sapiens, UniProt P05067); assay: Thioflavin T (ThT) fluorescence assay of Aβ40 fibril formation in presence of LL-37 or peptoid; type: biochemical
T1 construct: The 40 AA long isoform, Aβ40, is formed predominantly
T1 sequence (P05067 672-711 limits assumed): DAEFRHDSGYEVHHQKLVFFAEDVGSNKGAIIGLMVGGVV

[7] = test system: S. aureus; assay: Activity against S. aureus; type: cell-based
[8] = test system: M tuberculosis; assay: Activity against M tuberculosis; type: cell-based

Substance: Aβ40-E22Δ: FAD-causing Aβ40 variant with deletion of E22, known as the Osaka mutation (DAEFRHDSGYEVHHQKLVFFADVGSNKGAIIGLMVGGVV; Amyloid-beta protein 40; UniProt P05067 672-711, looked up, variant E22*)
- fibril formation (time) in ThT assay [1]: 38 ± 1 min

Substance: Aβ40-WT: 40 amino acid long wild-type isoform of Amyloid β
- fibril formation (time) in ThT assay [1]: 196 ± 7 min

Substance: H-(NLys-Nspe-Nspe)4-NH2 [Peptoid 1]
- concentration with antiviral activity / totally inactivating HSV-1 virus [2]: 4 µg/mL
- activity against pathogen [3]: active
- concentration with antimicrobial activity / killing P. gingivalis bacteria [4]: 4 µg/mL
- activity against pathogen [5]: active
- anti-amyloid activity (prevention of Aβ amyloid formation) ([6]; FIG. 1C, 20 μM peptide/peptoid concentrations): shares the same anti-amyloid activity
- activity against pathogen [7]: active
- activity against pathogen [8]: active

Substance: LL-37: peptide produced by the human innate immune system, ~4500 g/mol, 37 amino acids
- Aβ fibril formation (ThT fluorescence) ([6]; 1:1 equimolar ratio to wildtype Aβ40): totally prevented from forming Aβ fibrils; also recorded: blocks fibril formation
- kinetics of Aβ fibril formation (ThT fluorescence) ([6]; lower relative (sub-stoichiometric) molar amounts vs Aβ40): slow the kinetics of fibril formation; also recorded: slows it down in a dose-dependent manner
- final fluorescence at endpoint in ThT fibril formation assay ([6]; sub-stoichiometric LL-37 addition): higher fluorescence output at endpoint
